Assays:
[1] = test system: constipation caused by a chemotherapeutic agent in Balb/c mice; experiment: Examples 406-443 (Table 8): various administration modes of the CDK inhibitor, relief of constipation caused by a chemotherapeutic agent; assay type: in vivo;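 also: percent of treated mice relieved versus chemotherapy group by feces reduction rate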
From the text: Balb/c mice were fed for 1 week, and then divided into groups. The experiment was divided into a control group, a chemotherapeutic agent group, CDK inhibitor groups (including an oral administration group of a CDK inhibitor, an intravenous injection group of a CDK inhibitor, an intraperitoneal injection group of a CDK inhibitor, an intramuscular injection group of a CDK inhibitor, a local administration group of a CDK inhibitor), each of which comprised 10 mice, to perform the administration experiment, for which the administration dosage, mode, time and frequency were shown in Table 8. The control group: being administered with the same solvent as that used in the CDK inhibitor group (the time and mode were shown in Table 8), and then being injected/intragastrically administered with the same solvent as that used in the chemotherapeutic agent group (the administration mode was shown in Table 8): the chemotherapeutic agent group: being administered with the same solvent as that used in the CDK inhibitor group (the time and mode were shown in Table 8), and then being injected/intragastrically administered with the chemotherapeutic agent (the type, administration mode and dosage were shown in Table 8): the oral administration group of the CDK inhibitor: being intragastrically administered with the CDK inhibitor (the time was shown in Table 8), and then being administered with the chemotherapeutic agent (the mode and dosage were shown in Table 8): the intravenous injection group of the CDK inhibitor: being injected with the CDK inhibitor through tail vein (the time was shown in Table 8), and then being administered with the chemotherapeutic agent (the mode and dosage were shown in Table 8): the intraperitoneal injection group of the CDK inhibitor: being intraperitoneally injected with the CDK inhibitor (the time was shown in Table 8), and then being administered with the chemotherapeutic agent (the mode and dosage were shown in Table 8): the intramuscular injection group of the CDK inhibitor: being intramuscularly injected with the CDK inhibitor (the time was shown in Table 8), and then being administered with the chemotherapeutic agent (the mode and dosage were shown in Table 8); and the local administration group of the CDK inhibitor: the hair on the abdomen of mice was shaved (about 2 cm*2 cm), being applied with the CDK inhibitor (the time was shown in Table 8), and then being administered with the chemotherapeutic agent (the mode and dosage were shown in Table 8).
Feces reduction rate (%)=(the control group−the chemotherapeutic agent group or the CDK inhibitor group)/the control group*100%
The feces amount of mice within 3 hours was observed and recorded every day.

[2] = test system: diarrhea caused by a chemotherapeutic agent in Balb/c mice; experiment: Examples 382-405 (Table 7): various administration modes of the CDK inhibitor, relief of diarrhea caused by a chemotherapeutic agent; assay type: in vivo; conditions: cycle 8 days
From the text: Balb/c mice were fed for 1 week, and then divided into groups. The experiment was divided into a control group, a chemotherapeutic agent group, CDK inhibitor groups (including an oral administration group of a CDK inhibitor, an intraperitoneal injection group of a CDK inhibitor, an intramuscular injection group of a CDK inhibitor, a local administration group of a CDK inhibitor), each of which comprised 10 mice, to perform the administration experiment, for which the administration dosage, mode, time and frequency were shown in Table 7. The control group: being administered with the same solvent as that used in the CDK inhibitor group (the time and mode were shown in Table 7), and then being injected/intragastrically administered with the same solvent as that used in the chemotherapeutic agent group (the administration mode was shown in Table 7): the chemotherapeutic agent group: being administered with the same solvent as that used in the CDK inhibitor group (the time and mode were shown in Table 7), and then being injected/intragastrically administered with the chemotherapeutic agent (the type, administration mode and dosage were shown in Table 7): the oral administration group of the CDK inhibitor: being intragastrically administered with the CDK inhibitor (the time was shown in Table 7), and then being administered with the chemotherapeutic agent (the mode and dosage were shown in Table 7): the intraperitoneal injection group of the CDK inhibitor: being intraperitoneally injected with the CDK inhibitor (the time was shown in Table 7), and then being administered with the chemotherapeutic agent (the mode and dosage were shown in Table 7): the intramuscular injection group of the CDK inhibitor: being intramuscularly injected with the CDK inhibitor (the time was shown in Table 7), and then being administered with the chemotherapeutic agent (the mode and dosage were shown in Table 7); and the local administration group of the CDK inhibitor: the hair on the abdomen of mice was shaved (about 2 cm*2 cm), being applied with the CDK inhibitor (the time was shown in Table 7), and then being administered with the chemotherapeutic agent (the mode and dosage were shown in Table 7).
The diarrhea grading of mice was observed and recorded every day.

CC(=O)c1c(C)c2cnc(Nc3ccc(N4CCNCC4)cn3)nc2n(C2CCCC2)c1=O [Palbociclib]
Relative remission rate of other administration mode ([1]; Example 406, Doxorubicin (Dox) intraperitoneal injection 12 mg/kg single, CDK inhibitor intravenous injection 150 mg/kg single, 0.5 h before, cycle 8 days): 10% | Relative remission rate of oral administration ([1]; Example 406, Doxorubicin (Dox) intraperitoneal injection 12 mg/kg single, CDK inhibitor oral 150 mg/kg single, 0.5 h before, cycle 8 days): 20% | Relative remission rate of other administration mode ([1]; Example 407, Doxorubicin (Dox) intraperitoneal injection 12 mg/kg single, CDK inhibitor intravenous injection 150 mg/kg single, 4 h before, cycle 8 days): 10% | Relative remission rate of oral administration ([1]; Example 407, Doxorubicin (Dox) intraperitoneal injection 12 mg/kg single, CDK inhibitor oral 150 mg/kg single, 4 h before, cycle 8 days): 30% | Relative remission rate of other administration mode ([1]; Example 408, Doxorubicin (Dox) intraperitoneal injection 12 mg/kg single, CDK inhibitor intravenous injection 150 mg/kg single, 8 h before, cycle 8 days): 10% | Relative remission rate of oral administration ([1]; Example 408, Doxorubicin (Dox) intraperitoneal injection 12 mg/kg single, CDK inhibitor oral 150 mg/kg single, 8 h before, cycle 8 days): 30% | Relative remission rate of other administration mode ([1]; Example 409, Doxorubicin (Dox) intraperitoneal injection 12 mg/kg single, CDK inhibitor intravenous injection 150 mg/kg single, 12 h before, cycle 8 days): 20% | Relative remission rate of oral administration ([1]; Example 409, Doxorubicin (Dox) intraperitoneal injection 12 mg/kg single, CDK inhibitor oral 150 mg/kg single, 12 h before, cycle 8 days): 50% | Relative remission rate of other administration mode ([1]; Example 410, Doxorubicin (Dox) intraperitoneal injection 12 mg/kg single, CDK inhibitor intravenous injection 150 mg/kg single, 24 h before, cycle 8 days): 20% | Relative remission rate of oral administration ([1]; Example 410, Doxorubicin (Dox) intraperitoneal injection 12 mg/kg single, CDK inhibitor oral 150 mg/kg single, 24 h before, cycle 8 days): 40% | Relative remission rate of other administration mode ([1]; Example 415, Etoposide (Etop1) intraperitoneal injection 100 mg/kg single, CDK inhibitor intravenous injection 150 mg/kg single, 0.5 h before, cycle 8 days): 10% | Relative remission rate of oral administration ([1]; Example 415, Etoposide (Etop1) intraperitoneal injection 100 mg/kg single, CDK inhibitor oral 150 mg/kg single, 0.5 h before, cycle 8 days): 20% | Relative remission rate of other administration mode ([1]; Example 416, Etoposide (Etop1) intraperitoneal injection 100 mg/kg single, CDK inhibitor intravenous injection 150 mg/kg single, 4 h before, cycle 8 days): 20% | Relative remission rate of oral administration ([1]; Example 416, Etoposide (Etop1) intraperitoneal injection 100 mg/kg single, CDK inhibitor oral 150 mg/kg single, 4 h before, cycle 8 days): 40% | Relative remission rate of other administration mode ([1]; Example 417, Etoposide (Etop1) intraperitoneal injection 100 mg/kg single, CDK inhibitor intravenous injection 150 mg/kg single, 8 h before, cycle 8 days): 20% | Relative remission rate of oral administration ([1]; Example 417, Etoposide (Etop1) intraperitoneal injection 100 mg/kg single, CDK inhibitor oral 150 mg/kg single, 8 h before, cycle 8 days): 40% | Relative remission rate of other administration mode ([1]; Example 418, Etoposide (Etop1) intraperitoneal injection 100 mg/kg single, CDK inhibitor intravenous injection 150 mg/kg single, 12 h before, cycle 8 days): 10% | Relative remission rate of oral administration ([1]; Example 418, Etoposide (Etop1) intraperitoneal injection 100 mg/kg single, CDK inhibitor oral 150 mg/kg single, 12 h before, cycle 8 days): 30% | Relative remission rate of other administration mode ([1]; Example 419, Etoposide (Etop1) intraperitoneal injection 100 mg/kg single, CDK inhibitor intravenous injection 150 mg/kg single, 24 h before, cycle 8 days): 10% | Relative remission rate of oral administration ([1]; Example 419, Etoposide (Etop1) intraperitoneal injection 100 mg/kg single, CDK inhibitor oral 150 mg/kg single, 24 h before, cycle 8 days): 30% | Relative remission rate of other administration mode ([1]; Example 422, Etoposide and cisplatin intravenous injection 50 and 5 mg/kg single, CDK inhibitor intravenous injection 150 mg/kg single, 0.5 h before, cycle 7 days): 10% | Relative remission rate of oral administration ([1]; Example 422, Etoposide and cisplatin intravenous injection 50 and 5 mg/kg single, CDK inhibitor oral 150 mg/kg single, 0.5 h before, cycle 7 days): 40% | Relative remission rate of other administration mode ([1]; Example 423, Etoposide and cisplatin intravenous injection 50 and 5 mg/kg single, CDK inhibitor intravenous injection 150 mg/kg single, 24 h before, cycle 7 days): 20% | Relative remission rate of oral administration ([1]; Example 423, Etoposide and cisplatin intravenous injection 50 and 5 mg/kg single, CDK inhibitor oral 150 mg/kg single, 24 h before, cycle 7 days): 60% | Relative remission rate of other administration mode ([1]; Example 437, Gemcitabine intravenous injection 120 mg/kg single, CDK inhibitor intravenous injection 200 mg/kg single, 12 h before, cycle 8 days): 20% | Relative remission rate of oral administration ([1]; Example 437, Gemcitabine intravenous injection 120 mg/kg single, CDK inhibitor oral 200 mg/kg single, 12 h before, cycle 8 days): 50% | Relative remission rate of other administration mode ([2]; Example 382, Docetaxel (DTX) intraperitoneal injection 10 mg/kg single, CDK inhibitor intraperitoneal injection 150 mg/kg single, 0.5 h before): 10% | Relative remission rate of oral administration ([2]; Example 382, Docetaxel (DTX) intraperitoneal injection 10 mg/kg single, CDK inhibitor oral 150 mg/kg single, 0.5 h before): 40% | Relative remission rate of other administration mode ([2]; Example 383, Docetaxel (DTX) intraperitoneal injection 10 mg/kg single, CDK inhibitor intraperitoneal injection 150 mg/kg single, 4 h before): 10% | Relative remission rate of oral administration ([2]; Example 383, Docetaxel (DTX) intraperitoneal injection 10 mg/kg single, CDK inhibitor oral 150 mg/kg single, 4 h before): 40% | Relative remission rate of other administration mode ([2]; Example 384, Docetaxel (DTX) intraperitoneal injection 10 mg/kg single, CDK inhibitor intraperitoneal injection 150 mg/kg single, 8 h before): 10% | Relative remission rate of oral administration ([2]; Example 384, Docetaxel (DTX) intraperitoneal injection 10 mg/kg single, CDK inhibitor oral 150 mg/kg single, 8 h before): 50% | Relative remission rate of other administration mode ([2]; Example 385, Docetaxel (DTX) intraperitoneal injection 10 mg/kg single, CDK inhibitor intraperitoneal injection 150 mg/kg single, 12 h before): 20% | Relative remission rate of oral administration ([2]; Example 385, Docetaxel (DTX) intraperitoneal injection 10 mg/kg single, CDK inhibitor oral 150 mg/kg single, 12 h before): 70% | Relative remission rate of other administration mode ([2]; Example 386, Docetaxel (DTX) intraperitoneal injection 10 mg/kg single, CDK inhibitor intraperitoneal injection 150 mg/kg single, 24 h before): 10% | Relative remission rate of oral administration ([2]; Example 386, Docetaxel (DTX) intraperitoneal injection 10 mg/kg single, CDK inhibitor oral 150 mg/kg single, 24 h before): 50% | Relative remission rate of other administration mode ([2]; Example 403, Gemcitabine (GEM) intravenous injection 120 mg/kg single, CDK inhibitor intravenous injection 200 mg/kg single, 12 h before): 20% | Relative remission rate of oral administration ([2]; Example 403, Gemcitabine (GEM) intravenous injection 120 mg/kg single, CDK inhibitor oral 200 mg/kg single, 12 h before): 60%

Reference: patent US20240293413A1, “COMPOUND AND METHOD FOR TREATING CHEMOTHERAPY-RELATED GASTROINTESTINAL SIDE EFFECTS” (ONQUALITY PHARMACEUTICALS CHINA LTD., priority 2021, published 2024)
